Our source for the IC50 and solubility values is ChEMBL document CHEMBL1131793, “Discovery of FR166124, a novel water-soluble pyrazolo-[1,5-a]pyridine adenosine A1 receptor antagonist” (Bioorg Med Chem Lett, 1999).

The target of one data set is T1, Adenosine receptor A1 (Rattus norvegicus, UniProt P25099).
T1 sequence (P25099 whole entry): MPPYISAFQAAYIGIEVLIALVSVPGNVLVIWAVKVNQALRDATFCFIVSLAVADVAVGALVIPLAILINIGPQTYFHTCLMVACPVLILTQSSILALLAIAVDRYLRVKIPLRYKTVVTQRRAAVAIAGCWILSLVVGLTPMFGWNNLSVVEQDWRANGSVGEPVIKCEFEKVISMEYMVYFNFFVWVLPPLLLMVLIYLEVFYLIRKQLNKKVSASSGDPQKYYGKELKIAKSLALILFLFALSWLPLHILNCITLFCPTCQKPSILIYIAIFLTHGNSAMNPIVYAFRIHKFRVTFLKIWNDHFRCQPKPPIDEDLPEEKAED
Briefly: Inhibitory activity against Adenosine A1 Receptor using [3H]CHA in rat cortical membranes. It counts as cell membranes.

For the next data set, the target named is Adenosine receptor A2a (Rattus norvegicus, UniProt P30543). Put plainly: Inhibitory activity against Adenosine A2a receptor using [3H]NECA in rat striatal membranes. It counts as cell membranes, Striatum, Membrane.
Data set [1] in a line: Water solubility was measured. It counts as ADME.

Adenosine receptor A2a, sequence (P30543 whole entry): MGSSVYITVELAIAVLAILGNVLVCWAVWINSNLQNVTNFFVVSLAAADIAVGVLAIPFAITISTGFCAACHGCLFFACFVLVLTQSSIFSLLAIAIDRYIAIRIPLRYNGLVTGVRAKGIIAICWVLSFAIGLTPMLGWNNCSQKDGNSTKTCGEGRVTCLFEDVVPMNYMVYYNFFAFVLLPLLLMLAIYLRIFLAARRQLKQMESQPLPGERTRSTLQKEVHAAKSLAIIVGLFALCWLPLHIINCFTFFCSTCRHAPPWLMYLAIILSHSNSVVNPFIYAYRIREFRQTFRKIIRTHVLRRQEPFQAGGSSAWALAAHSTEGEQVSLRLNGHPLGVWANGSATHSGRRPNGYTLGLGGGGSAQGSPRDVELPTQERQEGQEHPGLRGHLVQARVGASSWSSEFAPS

`O=C(O)CCCn1nc(-c2c(-c3ccccc3)nn3ccccc23)ccc1=O`: the IC50 against Adenosine receptor A1 amounted to 120 nM; against Adenosine receptor A2a, 5900 nM.

Take `O=C(O)C[C@@H]1CCCC[C@H]1n1nc(-c2c(-c3ccccc3)nn3ccccc23)ccc1=O`: the IC50 against Adenosine receptor A1 amounted to 3.6 nM; on Adenosine receptor A2a it was 100 nM.

For the compound `O=C(O)C[C@H]1CCCC[C@H]1n1nc(-c2c(-c3ccccc3)nn3ccccc23)ccc1=O`, the IC50 was found to be 34 nM at Adenosine receptor A1 and 5500 nM at Adenosine receptor A2a.

With `O=C(/C=C/c1c(-c2ccccc2)nn2ccccc12)N1CCCC[C@@H]1CCO` [FK453], the IC50 at Adenosine receptor A1 came out at 17 nM; against Adenosine receptor A2a, 11000 nM.

With `O=C(O)CC1=C(n2nc(-c3c(-c4ccccc4)nn4ccccc34)ccc2=O)CCCC1`, the figures for the IC50 at Adenosine receptor A1 and against Adenosine receptor A2a were 15 nM and 6200 nM, respectively.

For `O=C(O)CC1=C(n2nc(-c3c(-c4ccccc4)nn4ccccc34)ccc2=O)CCC1`, the IC50 on Adenosine receptor A1 is 11 nM; at Adenosine receptor A2a it was 840 nM.

With `O=C(O)CC1=C(n2nc(-c3c(-c4ccccc4)nn4ccccc34)ccc2=O)CCCCC1`, the IC50 against Adenosine receptor A1 is 16 nM; against Adenosine receptor A2a, 5500 nM.

`O=C([O-])CCCn1nc(-c2c(-c3ccccc3)nn3ccccc23)ccc1=O.[Na+]`: in data set [1], the solubility was found to be 10000 µg/mL.

Take `O=C([O-])CC1=C(n2nc(-c3c(-c4ccccc4)nn4ccccc34)ccc2=O)CCCC1.[Na+]`: in data set [1], the solubility is above 200000 µg/mL.

The term IC50 denotes the point on the concentration scale where inhibition reaches its midpoint. High values mean weaker potency, low ones greater potency. As usually defined, the solubility is the dissolved amount per volume that the medium holds. Read a high solubility as much dissolved substance.
